Reference: patent publication US12502380B2, “MrgprX2 antagonists for the treatment of inflammatory disorders” (Dermira, Inc., priority 2019, dated 2025)

Molecular target: T1, Human MrgprX2 (Homo sapiens, UniProt Q96LB1)
T1 construct: expressed in transfected cells
T1 sequence (Q96LB1 1-330): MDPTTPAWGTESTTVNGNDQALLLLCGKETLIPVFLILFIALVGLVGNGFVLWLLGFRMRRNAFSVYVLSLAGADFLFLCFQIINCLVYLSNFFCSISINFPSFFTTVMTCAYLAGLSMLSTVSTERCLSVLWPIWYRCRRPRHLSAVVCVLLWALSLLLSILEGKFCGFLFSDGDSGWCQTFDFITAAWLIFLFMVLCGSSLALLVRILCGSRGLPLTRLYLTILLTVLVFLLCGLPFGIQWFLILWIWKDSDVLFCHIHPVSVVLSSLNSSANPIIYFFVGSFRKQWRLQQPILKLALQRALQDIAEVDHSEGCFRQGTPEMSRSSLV
Test: Human MrgprX2 antagonist FLIPR intracellular calcium mobilization assay
Assay type: cell-based
Conditions: antagonist activity, recombinant hMrgpMRGPRX2 expressing cells, read-out: Human MrgprX2 Antagonist pIC50 (converted)
From the text: Potent and selective hMrgpMRGPRX2 compounds have been generated from compounds identified during a high throughput screening (HTS) campaign and followed up with cycles of structure activity based medicinal chemistry efforts. These compounds were characterized in recombinant hMrgpMRGPRX2 expressing cells for their antagonist activity and the potency was confirmed in the human mast cell line LAD-2, where the target is endogenously expressed. The assays used to determine potencies are functional read-out looking at intracellular calcium mobilization using the FLIPR™ technology. In these FLIPR assays, we test the identified compounds using recombinant cellular systems expressing mouse MrgprB2, mouse MrgprA1, gerbil MrgpMRGPRX2 orthologue, Chinese hamster MrgpMRGPRX2 orthologue and cynomolgus monkey MrgpMRGPRX2 orthologue, respectively for orthologue activity.

Row | IC50 | SMILES
1 | 31.6 nM | CC(CO)N(C)C(=O)Nc1ncc(Cc2cccc(F)c2)s1 (centres unmarked) [Compound E128]
2 | 200 nM | C[C@H](O)CN(C)C(=O)Nc1ncc(Cc2ccc(F)cc2)s1 [Compound E130]
3 | 6.31 nM | C[C@@H](O)CN(C)C(=O)Nc1ncc(Cc2cc(F)cc(F)c2)s1 [Compound E133]
4 | 1.58 nM | C[C@H](O)CN(C)C(=O)Nc1ncc(Cc2cc(F)cc(F)c2)s1 [Compound E134]
5 | 15.8 nM | C[C@H](O)CN(C)C(=O)Nc1ncc(Cc2ccc(F)c(F)c2)s1 [Compound E135]
6 | 3.98 nM | C[C@H](O)CN(C)C(=O)Nc1ncc(Cc2cc(F)ccc2F)s1 [Compound E136]
7 | 10 nM | C[C@H](O)CN(C)C(=O)Nc1ncc(Cc2cccc(F)c2F)s1 [Compound E137]
8 | 50.1 nM | C[C@H](O)CN(C)C(=O)Nc1ncc(Cc2ccc(F)cc2F)s1 [Compound E141]
9 | 1580 nM | C[C@H](O)CN(C)C(=O)Nc1ncc(Cc2c(F)cccc2F)s1 [Compound E142]
10 | 398 nM | COc1ccc(F)cc1Cc1cnc(NC(=O)N(C)C[C@H](C)O)s1 [Compound E143]
11 | 1580 nM | C[C@H](O)CN(C)C(=O)Nc1ncc(Cc2cccc(C#N)c2)s1 [Compound E144]
12 | 3160 nM | C[C@H](O)CN(C)C(=O)Nc1ncc(Cc2ccc(C#N)cc2)s1 [Compound E145]
13 | 1.58 nM | C[C@@H](O)CN(C)C(=O)Nc1ncc(Oc2cccc(F)c2)s1 [Compound E150]
14 | 2 nM | C[C@H](O)CN(C)C(=O)Nc1ncc(Oc2ccc(F)cc2)s1 [Compound E151]
15 | 1.58 nM | C[C@H](O)CN(C)C(=O)Nc1ncc(Oc2cccc(F)c2)s1 [Compound E152]

The next lines start with the compound.

Row | SMILES | IC50
16 | CCN(C[C@H](C)O)C(=O)Nc1nc2ccccc2s1 [Compound E129] | 1000 nM
17 | NC(=O)[C@@H]1CCCN1C(=O)Nc1ncc(Cc2cccc(F)c2)s1 [Compound E131] | 6310 nM
18 | CN(CCO)C(=O)Nc1ncc(Cc2cccc(F)c2)s1 [Compound E132] | 2510 nM
19 | C[C@H](O)CN(C)C(=O)Nc1ncc(CC2CCCC2)s1 [Compound E138] | 2000 nM
20 | CCN(C[C@H](C)O)C(=O)Nc1ncc(Cc2cc(F)ccc2OC)s1 [Compound E139] | 39.8 nM
21 | CCN(C[C@H](C)O)C(=O)Nc1ncc(Cc2cccc(F)c2OC)s1 [Compound E140] | 501 nM
22 | CCN(C[C@H](C)O)C(=O)Nc1ncc(Cc2cc(F)cc(C#N)c2)s1 [Compound E146] | 39.8 nM
23 | CCN(C[C@H](C)O)C(=O)Nc1ncc(Oc2ccc(C#N)cc2)s1 [Compound E147, 3-[5-(4-cyanophenoxy)thiazol-2-yl]-1-ethyl-1-[(2S)-2-hydroxypropyl]urea] | 3.16 nM
24 | C[C@@H](O)CN(C)C(=O)Nc1ncc(Oc2ccccc2)s1 [Compound E148] | 15.8 nM
25 | C[C@H](O)CN(C)C(=O)Nc1ncc(Oc2ccccc2)s1 [Compound E149] | 2 nM
26 | CCN(C[C@H](C)O)C(=O)Nc1ncc(Oc2cccc(Cl)c2)s1 [Compound E153] | 0.794 nM
27 | CCN(C[C@H](C)O)C(=O)Nc1ncc(Oc2ccc(F)cc2)s1 [Compound E154] | 0.631 nM
28 | CCN(C[C@H](C)O)C(=O)Nc1ncc(Oc2ccccc2)s1 [Compound E155] | 0.631 nM
29 | C[C@H](O)CN(C)C(=O)Nc1ncc(Oc2ccc(C#N)cc2)s1 [Compound E156] | 39.8 nM
30 | CCN(C[C@H](C)O)C(=O)Nc1ncc(Oc2ccc(C)nc2)s1 [Compound E157] | 126 nM
31 | CCN(C[C@H](C)O)C(=O)Nc1ncc(Oc2cncc(F)c2)s1 [Compound E158] | 1.26 nM
32 | C[C@H](O)CN(C)C(=O)Nc1ncc(Oc2cccc(C#N)c2)s1 [Compound E159] | 10 nM
33 | C[C@H](O)CN(C)C(=O)Nc1ncc(Oc2ccc(C(F)(F)F)cc2)s1 [Compound E160] | 2510 nM
34 | CCN(C[C@H](C)O)C(=O)Nc1ncc(Oc2ccc(C(F)(F)F)cc2)s1 [Compound E161] | 316 nM
35 | CCN(C[C@H](C)O)C(=O)Nc1ncc(Oc2cccc(C#N)c2)s1 [Compound E162] | 1.58 nM
